This is an account of results in PubChem BioAssay AID1918948 (Molecular Pharmacology Branch, DTP, NCI, 2023).

The assay deals with K-562 leukemia growth, % test/control. The assay is described as follows: Anticancer human tumor K-562 cell line growth inhibition.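 As to all read-outs here: spheroids exposed to compounds for 7 days.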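 As to viability, T/C: 100% = DMSO vehicle wells and lower values mean fewer viable cells.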 The following applies: spheroids with HUVEC and MSC; for viability, T/C: stronger effect = lower value; for IC50: curve of compound. The text has this:
Multicellular complex tumor spheroid response to LSD1 Inhibitor Iadademstat in combination with a variety of drugs and investigational agents in selected tumor cell lines
The current study was undertaken to assess response to LSD1 inhibitors in combination with standard-of-care drugs and investigational agents in solid tumor complex spheroid models as well as in the K-562 leukemia. Complex spheroids include a stromal component modeled by human endothelial cells (HUVEC) and fibroblasts modeled by human mesenchymal stem cells (MSCs). The concentration ranges selected for each drug and investigational agent were based upon clinically achievable concentrations if the clinical Cmax of the agent was known.
Compounds. The drugs and investigational agents used in this study are listed on Table 1. All of the agents used, including staurosporine (NSC755774) and gemcitabine (NSC613327), were obtained from the Developmental Therapeutics Program, NCI. FDA-approved anticancer drugs are available from the NCI at http://dtp.nci.nih.gov/branches/dscb/oncology_drugset_explanation.html. Drugs and investigational agents were >95% pure by proton nuclear magnetic resonance (NMR) and liquid chromatography/mass spectrometry (LC/MS). Stock solutions were prepared at 400x in DMSO, stored at -70 degrees C, and diluted in fresh medium prior to their use. The final concentration of DMSO in cell culture wells never exceeded 0.25% (v/v). The FDA-approved anticancer drug set is available from the Developmental Therapeutics Program at https://dtp.cancer.gov/organization/dscb/obtaining/available_plates.htm. All drugs and investigational agents were tested over a range starting from a high concentration at or near the clinical Cmax and decreasing in half-log increments. If the clinical Cmax for an agent had not been determined, the highest concentration tested was 10 microM.
Cell Lines. The patient-derived cancer cell (PDC) lines: 292921-168-R-J2-PDC, K24384-001-R-PDC, and 521955-158-R2-J5-PDC pancreatic carcinomas, 556581-035-R-J1 ovarian carcinoma, 324938-238-R-J1-PDC, 855422-203-R-J1-PDC and 883617-216-R-J1-PDC urothelial bladder carcinomas, 743489-274-T-PDC renal cell carcinoma, 138582-R-J1 Merkel cell tumor, K60290-347-R-J1 and K57222-313-R-J1-PDC glioblastomas, 653999-131-R-J2-PDC, LG0703-F948-PDC, and 349418-098-R-PDC non-small cell lung carcinomas, 885512-296-R-J2-PDC, 171881-019-R-J1-PDC breast carcinomas and 186277-243-T-J2-PDC and 233499-124-R-J2-PDC colon carcinomas were obtained from the NCI Patient-Derived Models Repository (PDMR, https://pdmr.cancer.gov). The established cell lines NCI/ADR-RES (RRID:CVCL_14520 and OVCAR-5 (RRID:CVCL_1628) ovarian carcinomas, 786-O (RRID:CVCL_1051) and A498 (RRID:CVCL_A498) renal cell carcinoma, NCI-H211 (ATCC, cat. CRL-5824; RRID:CVCL_1529), NCI-H196 (ATCC, cat. CRL-5823, RRID:CVCL_1509), SW 1271 (ATCC, cat. CRL-2177, RRID:CVCL_1716) and NCI-H1876 (ATCC, cat. CRL-5902, RRID:CVCL_1503) small cell lung carcinomas, MDA-MB-231 (RRID:CVCL_0062) and MDA-MB-468 (RRID:CVCL_0419)breast carcinomas (10-12). Pooled donor human umbilical vein endothelial cells (HUVEC, Lonza, cat. CC-2519) and human mesenchymal stem cells (hMSC, Lonza, cat. PT-2501) were purchased from Lonza (Walkersville, MD).
Cell Culture. All cells were maintained in an incubator at 37 degrees C and 5% CO2 with 95% humidity. The PDC lines were cultured according to standard operating procedures established by the NCI PDMR (https://pdmr.cancer.gov). Briefly all PDCs were thawed and cultured in Matrigel-coated flasks prepared with a working solution of 1X Ham's F-12 nutrient mix, without supplementation (Invitrogen, Waltham, MA, cat. 11765054), 100 U/mL penicillin-streptomycin (Invitrogen, cat. 15140122), and 2.5% Matrigel (Corning Inc., Corning, NY, cat. 354248) for the first three passages. […]

As a reminder, the viability, T/C is the ratio of treated to control. Usually IC50 stands for the concentration at which inhibition is half-maximal.

SMILES strings stand for the structures. Several values for one entry are separate records, joined by “and”; a condition that tells them apart may be missing. Equal values may be shown once.

For the compound `Cn1ncnc1C1c2n[nH]c(=O)c3cc(F)cc(c23)NC1c1ccc(F)cc1` (stereo unspecified), the IC50 is greater than 100 nM. Also, the viability, T/C (compound 0.000316 µM) was 104% and 106%. Besides, the viability, T/C (compound 0.001 µM) is 95.2% and 105%. Also, the viability, T/C (compound 0.00316 µM) was 98.8% and 96.9%. For the same compound, the viability, T/C (compound 0.01 µM) is 98.7% and 102%. The viability, T/C (compound 0.0316 µM) is 99.4% and 102%. In addition, the viability, T/C (compound 0.1 µM) was 96.7% and 97.5%.
As to `NS(=O)(=O)OCC1CC(n2ccc3c(NC4CCc5ccccc54)ncnc32)CC1O` (stereo unspecified), the IC50 is 47.6 nM and < 9.49 nM. Moreover, where the note is “compound 0.00949 µM”, the viability, T/C is 65.6% and 51.5%. For the same compound, the viability, T/C (compound 0.03 µM) is 47% and 34.4%. The viability, T/C (compound 0.0949 µM) is 49.3% and 36.1%. The viability, T/C (compound 0.3 µM) was 34.9% and 20.1%. The viability, T/C (compound 0.949 µM) was 18% and 13.5%. Also, for the setting “compound 3 µM”, the viability, T/C is 11.5% and 4.24%.
For `Nc1ccccc1NC(=O)c1ccc(CNC(=O)OCc2cccnc2)cc1`, the IC50 is 449 nM and 188 nM. For the same compound, the viability, T/C (compound 0.00949 µM) was 107% and 112%. For the same compound, the viability, T/C (compound 0.03 µM) is 101% and 110%. In addition, the viability, T/C (compound 0.0949 µM) is 103% and 106%. Also, the viability, T/C (compound 0.3 µM) is 74.6% and 11.2%. For the same compound, the viability, T/C (compound 0.949 µM) is 4.47% and 0.45%. For the same compound, where the note is “compound 3 µM”, the viability, T/C was 0.26% and 0.16%.
In the case of `Nc1ccn(C2OC(CO)C(O)C2(F)F)c(=O)n1` (stereo unspecified), the viability, T/C (compound 0.000949 µM) is 45.4% and 98.6%; the viability, T/C (compound 0.003 µM) is 18.2% and 91.7%; the viability, T/C (compound 0.00949 µM) is 14.6% and 51.5%; the viability, T/C (compound 0.03 µM) is 13.6% and 21%; the viability, T/C (compound 0.0949 µM) is 15.1% and 19.3%; the viability, T/C (compound 0.3 µM) is 13.9% and 16.9%.
For the compound `Nc1ncn(C2CC(O)C(CO)O2)c(=O)n1` (stereo unspecified), the IC50 is greater than 1000 nM. Moreover, under “compound 0.00316 µM”, the viability, T/C was 94.7% and 99.7%. Moreover, under “compound 0.01 µM”, the viability, T/C was 93.9% and 96.9%. The viability, T/C (compound 0.0316 µM) was 88.5% and 96.1%. Moreover, where the note is “compound 0.1 µM”, the viability, T/C is 79.7% and 89.2%. Also, the viability, T/C (compound 0.316 µM) is 72.3% and 74.6%. Also, the viability, T/C (compound 1 µM) is 67.1% and 75.9%.
On to `Nc1ncn(C2CC(O)C(CO)S2)c(=O)n1` (stereo unspecified), for which the IC50 is 185 nM and 106 nM. In addition, the viability, T/C (compound 0.000949 µM) is 111% and 100%. The viability, T/C (compound 0.003 µM) was 109% and 106%. For the same compound, the viability, T/C (compound 0.00949 µM) is 109% and 105%. Also, the viability, T/C (compound 0.03 µM) is 94.4% and 87.5%. In addition, the viability, T/C (compound 0.0949 µM) was 67.2% and 53.8%. Further, the viability, T/C (compound 0.3 µM) was 37.7% and 19.5%.
Take `O=C(C=Cc1cccc(S(=O)(=O)Nc2ccccc2)c1)NO`: the IC50 was 483 nM and 235 nM. The viability, T/C (compound 0.00949 µM) was 100% and 96%. The viability, T/C (compound 0.03 µM) was 98.5% and 97.4%. The viability, T/C (compound 0.0949 µM) is 101% and 98.3%. Further, the viability, T/C (compound 0.3 µM) was 83.7% and 5.37%. Besides, the viability, T/C (compound 0.949 µM) was 2.11% and 0.8%.
Regarding `O=C(C=Cn1cnc(-c2cc(C(F)(F)F)cc(C(F)(F)F)c2)n1)NNc1cnccn1`, the concentration for half-maximal inhibition (IC50) is 76.3 nM and 123 nM. Also, under “compound 0.00316 µM”, the viability, T/C was 102% and 101%. Further, the viability, T/C (compound 0.01 µM) was 103%. Moreover, the viability, T/C (compound 0.0316 µM) is 92.1% and 101%. For the same compound, under “compound 0.1 µM”, the viability, T/C was 37.1% and 58.4%. The viability, T/C (compound 0.316 µM) was 4.12% and 9.78%. Moreover, the viability, T/C (compound 1 µM) is 1.22% and 1.15%.
For the compound `O=C(c1cc(Cc2n[nH]c(=O)c3ccccc23)ccc1F)N1CCN(C(=O)C2CC2)CC1`, the IC50 was 9470 nM and > 10000 nM. Where the note is “compound 0.0316 µM”, the viability, T/C is 97% and 101%. Also, the viability, T/C (compound 0.1 µM) is 99.8% and 101%. Under “compound 0.316 µM”, the viability, T/C is 99% and 103%. For the same compound, the viability, T/C (compound 1 µM) is 97.1% and 101%. For the same compound, the viability, T/C (compound 3.16 µM) is 88.5% and 94.2%. The viability, T/C (compound 10 µM) is 48.1% and 50.1%.
